From patent US9488641B2, “Multicellular system and method for multiparametric analysis” (Case Western Reserve University, priority 2012, dated 2016)
Entries after “also recorded” stand apart in the source; their conditions may differ.

Legend:
MCF7-R cells = test: Oxygen concentration under MCF7-R model agar half spheroid measured with Au microdisc electrode array; pharmacological modulation of cellular oxygen consumption; assay type: cell-based; details: for Measured O2 concentration (%) after NaN3: 100 μM NaN3, representative experiment; for Change of measured oxygen concentration after addition: 100 μm [sic] NaN3, 200 μm [sic] DNP
Method: Confluent plates of MCF7-R cells ere trypsinized and collected in a sterile 1 mL vial. The cell density and the total number of cells in the vial were estimated by cell counting using a hematocytometer. The cells were spun down in a centrifuge and the supernant medium removed. […] The vial with the cell-agar mixture was constantly kept in water bath at 37° C. to prevent the agar from gelling. Tiny hemispherical droplets (800-1000 μm diameter) of this mixture were deposited onto a Teflon® sheet using 0.5-2.5 μL pipette (Eppendorf, Hauppauge, N.Y.) to obtain hemispherical multicellular model agar spheroids. The Teflon® sheet with the model agar half spheroids was incubated in culture medium used for MCF7-R cell culture at 37° C. in 5% CO2. Henceforth, model agar half spheroids will be referred to simply as half spheroids.
The Au microdisc electrodes were polished using a fine emery paper to expose fresh electrode surface before each experiment. The polished electrodes were rinsed with DI water and allowed to dry in air (˜1 hour) after which a thin (˜10 μm) layer (spacer) of cellulose acetate was deposited. The electrodes were pre-conditioned electrochemically prior to starting the half spheroid experiment by continuous cyclic voltammograms (CV) until a stable measurement was reached (at least 50 CVs). The electrodes were calibrated for oxygen reduction current in PBS at different oxygen concentrations prior to the half spheroid experiment (henceforth, referred to as pre-calibration). A half spheroid was positioned on top of the electrode array and the oxygen concentrations inside the spheroid interrogated by linear scan voltammetry (LSV). Oxygen reduction currents under the half spheroid were recorded for half an hour after which the viability of cells inside the half spheroid was checked by pharmacological modulation of cellular oxygen consumption by administering metabolic poisons—NaN3 and DNP. At the end of the experiment the spheroid was removed and current corresponding to ambient oxygen concentration was recorded. The spheroid experiment was followed by a post experiment calibration (henceforth, referred to as post-calibration) of the electrodes to check for electrode drift. The LSV data recorded during these experiments was post processed to extract oxygen concentration values under the spheroid.
The Teflon® sheet on which half spheroids are was is removed from the incubating medium. A half spheroid was carefully transferred onto the electrode array using a curved edge of a pair of tweezers such that the radial electrode array was aligned along a spheroid radius (FIG. 8E). The positioning was done under a 2× stereo microscope to ensure that the spheroid is resting on its flat (bottom) edge. After the agar spheroid was positioned at the desired location a drop of low gelling agarose made in PBS maintained in liquid form at 37° C. was dispensed onto the spheroid from the top to secure its position and prevent it from moving with convective flow. PBS was added to the measurement device reservoir immediately after the spheroid position was secured. The time taken to position the spheroid from the time the half spheroid Petri-dish was removed from the incubator to the time when oxygen measurement is started is less than 3 minutes. During this time the cells in the spheroid (except the outer most shell) were not directly exposed to air.
Desired volumes of the NaN3, DNP and glucose solutions were gently added to the test solution using a disposable transfer pipettes. The solution was then homogenized by gentle circular movements induced by the same pipette for ˜10 s.

[1] = system: BAC1.2F5 macrophage cells; test: Oxygen uptake by BAC1.2F5 macrophage cells measured with Pt microring electrode (pulse amperometry); assay type: cell-based, mouse
Method: A CHI 1030 8-channel potentiostat (CH Instruments Inc., Austin, TZ) was used to perform all electrochemical experiments: Cyclic Voltammetry (CV) and Pulse Amperometry (PA). The experimental setup was placed inside a custom built Faraday cage which was equipped with an XYZ stage for manipulation of the devices and a custom built thermostat to maintain the temperature inside the Faraday cage at 25° C. A Scion camera was mounted on top of the Faraday cage to visual observation of the sensing unit of interest. The microfabricated Pt microring electrode was used as the working electrode of the electrochemical cell. An Ag/AgCl reference and a Pt counter electrode were used to complete the cell.
Live mouse macrophage cells (BAC1.2F5) were used for cell experiments. Culture and disposal procedures of these cells are described by E1-Moatassim and Dubyak (el-Moatassim and Dubyak 1992) in detail.
A 100 μL drop of cell medium with suspended cells (105 BAC 1.2F5 mouse macrophages/mL) was gently added to the buffer with a disposable plastic pipette on top of the chip ˜5 mm from the targeted sensing unit. A simple hydrodynamic manipulation technique previously developed in our laboratory (Yoshida, Tohda et al. 2003) was then used to precisely position the selected cell(s) inside the targeted microring electrode.
˜500 μL of the required solution was added to the buffer using a disposable plastic pipette. The buffer was then homogenized by gentle circular movements induced by the same pipette for ˜10 seconds.
Continuous measurement will lead to sustained depletion of oxygen near the electrode. When cells are positioned near the electrodes this depletion of oxygen may perturb oxygen dependent cellular processes by decreasing the local availability of oxygen. To mitigate this undesirable effect, a pulse amperometry (PA) protocol was implemented. In this protocol the electrode potential is maintained at +0.5 V where no oxygen reduction occurs, before stepping to −0.55 V at which oxygen is reduced. The length of both pulses was chosen to be 250 ms. This restricts the time of depletion of oxygen to the cathodic pulses by allowing for replenishment of oxygen during the anodic pulses. This protocol ensures a sampling rate of 2 Hz that can assess metabolic processes occurring on the seconds time scale. Current proportional to local oxygen concentration is recorded and averaged at the end of each cathodic pulse for 50 ms. This recording period is long enough to obtain a representative value while also minimizing interference by 60 Hz noise.
To confirm that the observed variations in oxygen concentration indicated by the MEMS device reflect physiological processes of the cell(s), we performed another experiment where the metabolic rate of the cell(s) was pharmacologically modulated. […]

## [N-]=[N+]=[N-] [NaN3, sodium azide]
MCF7-R cells; electrode E1, 610 μm from the center of the spheroid (outside spheroid), 30% cell volume fraction half spheroid
  Measured O2 concentration (%) after NaN3: 15.9%
MCF7-R cells; electrode E2, 470 μm from the center of the spheroid, 30% cell volume fraction half spheroid
  Measured O2 concentration (%) after NaN3: 14.3%
MCF7-R cells; electrode E3, 370 μm from the center of the spheroid, 30% cell volume fraction half spheroid
  Measured O2 concentration (%) after NaN3: 10.8%
MCF7-R cells; electrode E4, 270 μm from the center of the spheroid, 30% cell volume fraction half spheroid
  Measured O2 concentration (%) after NaN3: 9.9%
MCF7-R cells; electrode E5, 180 μm from the center of the spheroid, 30% cell volume fraction half spheroid
  Measured O2 concentration (%) after NaN3: 9.6%

## O=C[C@H](O)[C@@H](O)[C@H](O)[C@H](O)CO [D-Glucose]
MCF7-R cells; 25 mM D-Glucose added to PBS after the glucose-deprivation increase (FIG. 35)
  Change of measured oxygen concentration after addition of glucose to the PBS: decrease

## O=[N+]([O-])c1ccc(O)c([N+](=O)[O-])c1 [DNP, 2,4 dinitrophenol]
MCF7-R cells; 15% cell volume fraction spheroid (FIG. 30)
  Change of measured oxygen concentration after addition: decreases
MCF7-R cells; 15% cell volume fraction spheroid with 5% ambient pO2 (FIG. 34)
  Change of measured oxygen concentration after addition: decreases
MCF7-R cells; 15% cell volume fraction spheroid with 10% ambient pO2 (FIG. 33)
  Change of measured oxygen concentration after addition: decreases
MCF7-R cells; 30% cell volume fraction half spheroid, ~20% ambient O2, 100 μM sodium azide, then 200 μM DNP (final concentrations)
  Change of measured oxygen concentrations after addition: decreased rapidly; also recorded: decreases
MCF7-R cells; 30% cell volume fraction spheroid as printed (FIG. 31), non-zero oxygen core
  Change of measured oxygen concentration after addition: decreases
MCF7-R cells; MCF7-R cells in half spheroid, 100 μM NaN3, subsequent 200 μM DNP (final concentrations)
  Oxygen consumption by the cells: rapid increase

## C[C@@H]1O[C@@H](O[C@H]2C[C@@H](O)[C@]3(CO)[C@H]4[C@H](O)C[C@]5(C)[C@@H](C6=CC(=O)OC6)CC[C@]5(O)[C@@H]4CC[C@]3(O)C2)[C@H](O)[C@H](O)[C@H]1O [ouabain]
[1]; cluster of 6 cells inside microring
  Current higher than that recorded before administration of ouabain: ~1.7 nA
[1]; cluster of 6 cells inside microring, ~7.1 nA before ouabain
  Stabilized electrode current after addition of ouabain: ~8.8 nA
[1]; cluster of 6 cells inside microring, ~9% before ouabain
  Oxygen concentration corresponding to stabilized current after ouabain: ~15%
[1]; representative of 3 experiments
  Stationary local oxygen concentration immediately after administration of ouabain: increase
